Reference: patent US20200253926A1, “THERAPEUTIC COMBINATIONS” (SUPERSALUS, INC., priority 2019, published 2020)
Counter-ions that a name gives are not always drawn.

How the values were obtained:
H2S levels = conditions: compared to vehicle treated animals; cited from earlier work
NO2 levels = conditions: compared with vehicle treated animals; cited from earlier work
isolated rat hearts = conditions: cited from earlier work
aortic rings = conditions: cited from earlier work
portal vein rings = assay: In-vitro rat portal vein ring relaxation (isometric method); type: cell-based, Wistar rats; set-up: Emax: dose or concentration left out as unconfirmed
Experimental: The portal vein was recovered from Wistar rats weighing approximately 450 gm, and divided into vein segments. Segments were placed in a bath containing approximately 10 mL of Krebs buffer at pH˜7.4. The vehicle used for treatment was 0.2% DMSO. Portal vein rings were pre-contracted and incubated for 60 min at 32° C. Ring relaxation was measured after 10 minutes of exposure to the test compound(s). Chromakalim served as the positive control for the experiment. Ring relaxation was measured by the isometric method as gram changes. Relaxation of the vein rings in this assay are a function of both KATP channel agonization and NO response. In prior published work, about half of the relaxation response could be attributable to KATP channel agonization and half to a NO-mediated response. Each assay was run in duplicate.
Eight combinations of concentration of zofenopril and nicorandil were tested in the assay. These were 80 and 40 μM nicorandil, 100 and 50 μM zofenopril, 12.5 μM zofenopril+10 μM nicorandil, 12.5 μM zofenopril+20 μM nicorandil, 12.5 μM zofenopril+40 μM nicorandil, and 25 μM zofenopril+40 μM nicorandil.

arterial rings = conditions: 100 μM zofenopril; cited from earlier work
[1] = Hygroscopicity by dynamic vapor sorption (DVS); type: physicochemical
Experimental: Zofenopril calcium was slurried in ACN. Two molar equivalents of HCl were added. The materials were allowed to slurry overnight. […] On DSC this material has an onset at 162° C. This is in contrast to DSC results for zofenopril calcium which has an onset of 250.3° C. […] On the sorption step up to 65% RH, the material gained 1.2% weight. Above this RH, the material gained an additional 36.9% weight. […] Most of the weight was lost on desorption with significant hysteresis.
Nicorandil free base was dissolved in acetone resulting in a clear solution. A molar equivalent of HCl was added stepwise following which there nucleation with rosettes of aciculars and blades that were birefringent. The resulting material was recovered and shown to be nicorandil HCl form A. The XRPD pattern for this sample is shown in FIG. 16. Based on the single crystal structure, nicorandil hydrochloride form A is anhydrous and contains one nicorandil cation and one chloride anion in the asymmetric unit. On the sorption step up to 75% RH, the material gained 0.5% weight. Above that it gained an additional 52% weight. Most of the weight was lost on desoption with significant hysteresis. The material recovered from DVS was shown by XRPD to be form A (FIG. 18). Solubility of nicorandil HCl form A was tested and shown to be >48 mg/mL which was the limit of the test.

physchem = type: physicochemical; conditions: for solubility: thermodynamic from solid
Experimental: The hygroscopicity of zofenopril sodium material A was tested using DVS.

[2] = following a 5 mg dose; expected value; cited from earlier work
[3] = test system: human umbilical artery segments; conditions: cited from earlier work

For `CCOC(=O)[C@H](CCc1ccccc1)N[C@@H](C)C(=O)N1[C@H](C(=O)O)C[C@@H]2CCC[C@@H]21` [Ramipril, ramipril], the “plasma and myocardial tissue H2S levels” value (H2S levels) is listed as “did not elevate” and the “plasma and myocardial tissue NO2 levels” value (NO2 levels) is listed as “virtually no effect”.
For `C[C@H](CSC(=O)c1ccccc1)C(=O)N1C[C@@H](Sc2ccccc2)C[C@H]1C(=O)O` [zofenopril], the “pre-ischemic coronary flow or contractile function” value (isolated rat hearts) is given as “little effect”, the “reperfusion end diastolic pressure (EDP) and lactate dehydrogenase (LDH) release” value (isolated rat hearts; reversed by glyburide and 5-HD) is given as “significantly reduced” and the reperfusion function (isolated rat hearts; reversed by glyburide and 5-HD) is given as “significantly improved”. The “plasma and myocardial tissue H2S levels” value (H2S levels) was “directly elevating plasma and myocardial tissue H2S levels”, the “maximal response, relaxation of aortic rings” value (aortic rings) was 89% and the “relaxation, % of the positive control” value (portal vein rings; 50 μM zofenopril) was 60%. For the same compound, the “relaxation, % of the positive control” value (portal vein rings; 100 μM zofenopril, positive control chromakalim, 10 min exposure) was “about 85%”, the Emax (portal vein rings; Rattus norvegicus, read-out: relaxation, % of the maximum response for zofenopril) was ~70% and the “plasma and myocardial tissue NO2 levels” value (NO2 levels) was “significantly increased”. The relaxation response (arterial rings) was “maximal relaxation response”.
In the case of `CC1(C)Oc2ccc(C#N)cc2C(N2CCCC2=O)C1O` (stereo not drawn) [Chromakalim, chromakalim], the “relaxation of aortic rings” value (aortic rings) is listed as “near maximal relaxation”.
With “zofenopril calcium chloride [Zofenopril calcium chloride form A]” the “DVS additional weight gain above 65% RH” value ([1]; above 65% RH, equilibration timed out at all steps) was 36.9 % weight and the “DVS weight gain on the sorption step up to 65% RH” value ([1]; up to 65% RH) was 1.2 % weight.
For `O=C(NCCO[N+](=O)[O-])c1cccnc1` [nicorandil HCl form A, nicorandil hydrochloride], the solubility (physchem) was > 48 mg/mL, the “DVS additional weight gain above 75% RH” value ([1]; above 75% RH) was 52 % weight and the “DVS weight gain on the sorption step up to 75% RH” value ([1]; up to 75% RH) was 0.5 % weight.
In the case of `C[C@H](CSC(=O)c1ccccc1)C(=O)N1C[C@@H](Sc2ccccc2)C[C@H]1C(=O)O` [zofenopril sodium material A, zofenopril sodium], the “pH of the solution at the end of the solubility” value (physchem; pH 10) is reported as 10 and the solubility (physchem; pH 10, water) is reported as > 48 mg/mL.
For `O=C(NCCO[N+](=O)[O-])c1cccnc1` [nicorandil], the Cmax [2] is given as 15 to 16 µM, the relaxation response (portal vein rings; 40 μM nicorandil) is given as “maximal relaxation response” and the “relaxation, % of maximum” value ([3]; 30 μM nicorandil) is given as “about 60%”. For the same compound, the relaxation ([3]; 100 μM nicorandil) was “maximal relaxation”.
